Experimental data from ChEMBL document CHEMBL1158711, “Bisindigotin, a TCDD antagonist from the Chinese medicinal herb Isatis indigotica” (J Nat Prod, 2005).

Assay: Inhibition of TCDD-induced EROD activity in human HepG2 cells after 24 hrs
Format: cell-based

Question: With `CC(=O)N1/C(=C2\N=c3ccccc3=C2c2c(C3=Nc4ccccc4C3=O)[nH]c3ccccc23)C(=O)c2ccccc21` as the molecule, how does the IC50 read?
Answer: 3000 nM

Question: For `O=c1cc(-c2ccccc2)oc2c1ccc1ccccc12` [ALPHA-NAPHTHOFLAVONE], which IC50 is on record?
Answer: 320 nM

Question: For `O=C1C(c2[nH]c3ccccc3c2C2=c3ccccc3=N/C2=C2\Nc3ccccc3C2=O)=Nc2ccccc21` [BISINDIGOTIN], which IC50 is on record?
Answer: 800 nM
